Assay results from ChEMBL document CHEMBL3881526, “Selective androgen receptor modulators and method of use thereof” (2007).
The source made the active and inactive calls. The calls are words filed in the database; no cut-off is given here.

Assays:
Rattus norvegicus [1] = experiment: Androgenic activity in ORX Sprague-Dawley rat assessed as restoration of prostate weight at 0.1 to 1 ug/day delivered at constant rate for 14 days via subcutaneous osmotic pumps; type: functional
Rattus norvegicus [2] = experiment: Anabolic activity in ORX Sprague-Dawley rat assessed as restoration of levator ani muscle weight at 0.1 to 1 ug/day delivered at constant rate for 14 days via subcutaneous osmotic pumps; type: functional
Rattus norvegicus [3] = experiment: Androgenic activity in ORX Sprague-Dawley rat assessed as restoration of seminal vesicles weight at 0.1 to 1 ug/day delivered at constant rate for 14 days via subcutaneous osmotic pumps; type: functional
Rattus norvegicus [4] = experiment: Anabolic activity in ORX Sprague-Dawley rat assessed as restoration of levator ani muscle weight at 1000 ug/day delivered at constant rate for 14 days via subcutaneous osmotic pumps; type: functional, tissue-based
Rattus norvegicus [5] = experiment: Effect on serum FSH in ORX Sprague-Dawley rat at 0.3 mg/day delivered at constant rate for 14 days via subcutaneous osmotic pumps; type: ADME; conditions: sc, 336 h
[6] = Plasma clearance in beagle dog at 3 mg/kg, iv after 72 hrs by HPLC analysis; type: ADME, organism-based, Canis lupus familiaris
[7] = Terminal half life in beagle dog at 3 mg/kg, iv after 72 hrs by HPLC analysis; type: ADME, organism-based, Canis lupus familiaris; conditions: in vivo, read-out: beta t1/2 (converted)
Rattus norvegicus [8] = experiment: Effect on serum LH in ORX Sprague-Dawley rat at 0.3 mg/day delivered at constant rate for 14 days via subcutaneous osmotic pumps; type: ADME; conditions: sc, 336 h
[9] = Oral bioavailability in beagle dog at 10 mg/kg administered via solution after 72 hrs by HPLC analysis; type: ADME, organism-based, Canis lupus familiaris; conditions: in vivo
Rattus norvegicus [10] = experiment: Androgenic activity in ORX Sprague-Dawley rat assessed as restoration of prostate weight at 1000 ug/day delivered at constant rate for 14 days via subcutaneous osmotic pumps; type: functional, tissue-based
[11] = Oral bioavailability in beagle dog at 10 mg/kg administered via capsule after 72 hrs by HPLC analysis; type: ADME, organism-based, Canis lupus familiaris; conditions: in vivo
Rattus norvegicus [12] = experiment: Androgenic activity in ORX Sprague-Dawley rat assessed as restoration of seminal vesicles weight at 1000 ug/day delivered at constant rate for 14 days via subcutaneous osmotic pumps; type: functional, tissue-based
Rattus norvegicus [13] = experiment: Androgenic activity in ORX Sprague-Dawley rat assessed as restoration of prostate weight at 100 ug/day delivered at constant rate for 14 days via subcutaneous osmotic pumps; type: functional
Rattus norvegicus [14] = experiment: Androgenic activity in ORX Sprague-Dawley rat assessed as restoration of seminal vesicles weight at 100 ug/day delivered at constant rate for 14 days via subcutaneous osmotic pumps; type: functional
Rattus norvegicus [15] = experiment: Anabolic activity in ORX Sprague-Dawley rat assessed as restoration of levator ani muscle weight at 100 ug/day delivered at constant rate for 14 days via subcutaneous osmotic pumps; type: functional, tissue-based
Rattus norvegicus [16] = experiment: Suppression of serum FSH in ORX Sprague-Dawley rat at 0.1 to 1 mg/day delivered at constant rate for 14 days via subcutaneous osmotic pumps; type: functional

Which Activity (Rattus norvegicus [1]) does the source give for `C[C@](O)(COc1ccc(Cl)cc1)C(=O)Nc1ccc([N+](=O)[O-])c(C(F)(F)F)c1` here?
Its Activity is <20%.

What about the Activity (Rattus norvegicus [2]) of the same compound?
The Activity was “Active”.

What about the Activity (Rattus norvegicus [3]) of the same compound?
The Activity was <20%.

What does the source list for `CC(=O)Nc1ccc(OC[C@](C)(O)C(=O)Nc2ccc([N+](=O)[O-])c(C(F)(F)F)c2)cc1`?
Activity (Rattus norvegicus [1]): Dose-dependent effect; Activity (Rattus norvegicus [4]): Active; Activity (Rattus norvegicus [5]): Non-Toxic; clearance [6]: 4.4 mL/min/kg; half-life [7]: 240 min; Activity (Rattus norvegicus [2]): Dose-dependent effect; Activity (Rattus norvegicus [8]): Non-Toxic; bioavailability [9]: 38%; Activity (Rattus norvegicus [10]): Active; bioavailability [11]: 19%; Activity (Rattus norvegicus [3]): Dose-dependent effect; Activity (Rattus norvegicus [12]): Active

For `C[C@](O)(COc1ccc(I)cc1)C(=O)Nc1ccc([N+](=O)[O-])c(C(F)(F)F)c1`, which Activity (Rattus norvegicus [1]) is on record?
The Activity was <40%.

And the Activity (Rattus norvegicus [2])?
Its Activity is “Active”.

What about the Activity (Rattus norvegicus [3]) of the same compound?
Its Activity is <40%.

With `CCC(=O)O[C@H]1CC[C@H]2[C@@H]3CCC4=CC(=O)CC[C@]4(C)[C@H]3CC[C@]12C` as the compound, how does the Activity (Rattus norvegicus [13]) read?
Its Activity is “Active”.

And the Activity (Rattus norvegicus [14])?
The Activity was “Active”.

And the Activity (Rattus norvegicus [15])?
The Activity was “Active”.

What about the Activity (Rattus norvegicus [16]) of the same compound?
Its Activity is “Active”.
